Assay results reported in PubChem BioAssay (NCI).
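A five-concentration, 48-hour dose response in 96-well plates underlies each endpoint, interpolated linearly between surrounding concentrations. At the TGI there is no net growth.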

Legend:
Experiment in all cases: NCI tumour cell line growth inhibition, 48 h
CAKI-1 renal = test system: CAKI-1 renal
IGROV1 ovarian = test system: IGROV1 ovarian
MOLT-4 leukemia = test system: MOLT-4 leukemia
MDA-N = test system: MDA-N
OVCAR-4 ovarian = test system: OVCAR-4 ovarian
SK-OV-3 ovarian = test system: SK-OV-3 ovarian
SK-MEL-28 melanoma = test system: SK-MEL-28 melanoma
HCT-15 colon = test system: HCT-15 colon
UACC-62 melanoma = test system: UACC-62 melanoma
NCI-H226 lung = test system: NCI-H226 lung
LOX IMVI melanoma = test system: LOX IMVI melanoma
KM12 colon = test system: KM12 colon
SF-295 CNS = test system: SF-295 CNS
HCC-2998 colon = test system: HCC-2998 colon
NCI-H522 lung = test system: NCI-H522 lung
PC-3 prostate = test system: PC-3 prostate
DU-145 prostate = test system: DU-145 prostate
EKVX NSCLC = test system: EKVX NSCLC
SF-268 CNS = test system: SF-268 CNS
COLO 205 colon = test system: COLO 205 colon
HOP-92 NSCLC = test system: HOP-92 NSCLC
HL-60(TB) leukemia = test system: HL-60(TB) leukemia
SK-MEL-2 melanoma = test system: SK-MEL-2 melanoma
ACHN renal = test system: ACHN renal
SW-620 colon = test system: SW-620 colon
HS 578T breast = test system: HS 578T breast
BT-549 breast = test system: BT-549 breast
NCI-H23 lung = test system: NCI-H23 lung
RXF 393 renal = test system: RXF 393 renal
786-0 renal = test system: 786-0 renal
TK-10 renal = test system: TK-10 renal
RPMI-8226 leukemia = test system: RPMI-8226 leukemia
K-562 leukemia = test system: K-562 leukemia
SK-MEL-5 melanoma = test system: SK-MEL-5 melanoma
HCT-116 colon = test system: HCT-116 colon
MALME-3M melanoma = test system: MALME-3M melanoma
OVCAR-5 ovarian = test system: OVCAR-5 ovarian
UO-31 renal = test system: UO-31 renal
HT29 colon = test system: HT29 colon
OVCAR-3 ovarian = test system: OVCAR-3 ovarian
CCRF-CEM leukemia = test system: CCRF-CEM leukemia
MDA-MB-435 = test system: MDA-MB-435
SNB-75 CNS = test system: SNB-75 CNS
SN12C renal = test system: SN12C renal
T-47D breast = test system: T-47D breast
UACC-257 melanoma = test system: UACC-257 melanoma
SR leukemia = test system: SR leukemia
HOP-62 NSCLC = test system: HOP-62 NSCLC
A549 NSCLC = test system: A549 NSCLC
M14 melanoma = test system: M14 melanoma
NCI/ADR-RES ovarian = test system: NCI/ADR-RES ovarian
MDA-MB-231 breast = test system: MDA-MB-231 breast
U251 CNS = test system: U251 CNS
A498 renal = test system: A498 renal
OVCAR-8 ovarian = test system: OVCAR-8 ovarian
MCF7 breast = test system: MCF7 breast
SF-539 CNS = test system: SF-539 CNS
SNB-19 CNS = test system: SNB-19 CNS
NCI-H460 lung = test system: NCI-H460 lung

SMILES: NC(N)=Nc1ccc(CC(N)NCC(=O)O)cc1 (centres undefined)
- TGI (CAKI-1 renal): > 25 µM
- TGI (IGROV1 ovarian): > 25 µM
- TGI (MOLT-4 leukemia): > 25 µM
- TGI (MDA-N): > 25 µM
- TGI (OVCAR-4 ovarian): > 25 µM
- TGI (SK-OV-3 ovarian): > 25 µM
- TGI (SK-MEL-28 melanoma): > 25 µM
- TGI (HCT-15 colon): > 25 µM
- TGI (UACC-62 melanoma): > 25 µM
- TGI (NCI-H226 lung): > 25 µM
- TGI (LOX IMVI melanoma): > 25 µM
- TGI (KM12 colon): > 25 µM
- TGI (SF-295 CNS): > 25 µM
- TGI (HCC-2998 colon): > 25 µM
- TGI (NCI-H522 lung): > 25 µM
- TGI (PC-3 prostate): > 25 µM
- TGI (DU-145 prostate): > 25 µM
- TGI (EKVX NSCLC): > 25 µM
- TGI (SF-268 CNS): > 25 µM
- TGI (COLO 205 colon): > 25 µM
- TGI (HOP-92 NSCLC): > 25 µM
- TGI (HL-60(TB) leukemia): > 25 µM
- TGI (SK-MEL-2 melanoma): > 25 µM
- TGI (ACHN renal): > 25 µM
- TGI (SW-620 colon): > 25 µM
- TGI (HS 578T breast): > 25 µM
- TGI (BT-549 breast): > 25 µM
- TGI (NCI-H23 lung): > 25 µM
- TGI (RXF 393 renal): > 25 µM
- TGI (786-0 renal): > 25 µM
- TGI (TK-10 renal): > 25 µM
- TGI (RPMI-8226 leukemia): > 25 µM
- TGI (K-562 leukemia): > 25 µM
- TGI (SK-MEL-5 melanoma): > 25 µM
- TGI (HCT-116 colon): > 25 µM
- TGI (MALME-3M melanoma): > 25 µM
- TGI (OVCAR-5 ovarian): > 25 µM
- TGI (UO-31 renal): > 25 µM
- TGI (HT29 colon): > 25 µM
- TGI (OVCAR-3 ovarian): > 25 µM
- TGI (CCRF-CEM leukemia): > 25 µM
- TGI (MDA-MB-435): > 25 µM
- TGI (SNB-75 CNS): > 25 µM
- TGI (SN12C renal): > 25 µM
- TGI (T-47D breast): > 25 µM
- TGI (UACC-257 melanoma): > 25 µM
- TGI (SR leukemia): > 25 µM
- TGI (HOP-62 NSCLC): > 25 µM
- TGI (A549 NSCLC): > 25 µM
- TGI (M14 melanoma): > 25 µM
- TGI (NCI/ADR-RES ovarian): > 25 µM
- TGI (MDA-MB-231 breast): > 25 µM
- TGI (U251 CNS): > 25 µM
- TGI (A498 renal): > 25 µM
- TGI (OVCAR-8 ovarian): > 25 µM
- TGI (MCF7 breast): > 25 µM

SMILES: CC(C)=CCC[C@@H](C)c1c(O)c(O)c(C)c2nccnc12
- TGI (CAKI-1 renal): > 90.3 µM
- TGI (IGROV1 ovarian): > 81.5 µM
- TGI (MOLT-4 leukemia): > 53.1 µM
- TGI (MDA-N): > 100 µM
- TGI (OVCAR-4 ovarian): > 100 µM
- TGI (SK-OV-3 ovarian): > 100 µM
- TGI (SK-MEL-28 melanoma): > 100 µM
- TGI (HCT-15 colon): > 100 µM
- TGI (UACC-62 melanoma): 50.5 µM
- TGI (NCI-H226 lung): 37.1 µM
- TGI (LOX IMVI melanoma): > 100 µM
- TGI (KM12 colon): > 72 µM
- TGI (SF-295 CNS): > 71.2 µM
- TGI (HCC-2998 colon): > 96.6 µM
- TGI (NCI-H522 lung): 23.6 µM
- TGI (PC-3 prostate): > 100 µM
- TGI (DU-145 prostate): > 100 µM
- TGI (EKVX NSCLC): > 100 µM
- TGI (SF-268 CNS): > 100 µM
- TGI (COLO 205 colon): > 80.7 µM
- TGI (SF-539 CNS): 60.2 µM
- TGI (HOP-92 NSCLC): > 94.2 µM
- TGI (SK-MEL-2 melanoma): 58 µM
- TGI (ACHN renal): 45.2 µM
- TGI (SW-620 colon): > 100 µM
- TGI (SNB-19 CNS): > 100 µM
- TGI (HS 578T breast): > 80.2 µM
- TGI (BT-549 breast): > 100 µM
- TGI (NCI-H23 lung): > 79.1 µM
- TGI (RXF 393 renal): > 89.1 µM
- TGI (786-0 renal): > 100 µM
- TGI (TK-10 renal): > 100 µM
- TGI (RPMI-8226 leukemia): > 62.7 µM
- TGI (K-562 leukemia): > 66.6 µM
- TGI (NCI-H460 lung): > 100 µM
- TGI (SK-MEL-5 melanoma): 18.9 µM
- TGI (HCT-116 colon): > 100 µM
- TGI (MALME-3M melanoma): 66.7 µM
- TGI (OVCAR-5 ovarian): > 100 µM
- TGI (UO-31 renal): 45.9 µM
- TGI (HT29 colon): > 65.6 µM
- TGI (OVCAR-3 ovarian): > 100 µM
- TGI (CCRF-CEM leukemia): > 36.5 µM
- TGI (MDA-MB-435): > 100 µM
- TGI (SNB-75 CNS): > 100 µM
- TGI (SN12C renal): > 100 µM
- TGI (T-47D breast): > 79.8 µM
- TGI (UACC-257 melanoma): > 100 µM
- TGI (SR leukemia): > 100 µM
- TGI (HOP-62 NSCLC): > 77.9 µM
- TGI (A549 NSCLC): > 100 µM
- TGI (M14 melanoma): > 100 µM
- TGI (NCI/ADR-RES ovarian): 17.7 µM
- TGI (MDA-MB-231 breast): > 100 µM
- TGI (U251 CNS): > 100 µM
- TGI (A498 renal): > 86.1 µM
- TGI (OVCAR-8 ovarian): > 48.6 µM
- TGI (MCF7 breast): > 100 µM
